Experimental data from patent US9726659B2, “CMPF as a biomarker for diabetes and associated methods” (The Governing Council of the University of Toronto, priority 2012, dated 2017).

Legend:
mouse islets [1] = experiment: Microarray analysis of 24 hr treated islets; type: cell-based; details: 24 hr treatment
Description: A) Expression of insulin, insulin processing enzymes, insulin transcription factors and glucose-sensing genes in 24-hour treated islets (N=5-6/group). B) MMP following 24-hour incubation with control or 200 μM CMPF, and change in fluorescence (N=4/group). […] Values are mean+/−SEM. Student's t-test (a,c), one-way ANOVA (b). *P<0.05, **P<0.01
(§1) Total RNA was extracted from 24 hour vehicle or CMPF-treated islets using the Qiagen RNeasy Plus mini kit (Hilden, Germany). Microarray analysis was performed as previously described (Basford et al. 2012) using the Affymetrix Mouse 430 2.0 Gene Chip at the University Health Network microarray center (Toronto, Canada). Significant changes were defined as P<0.05. Microarray data will be available on the NCBI GEO database at the time of publication. Human islet microarray data can be found at GE040709. Reverse transcription from total RNA and quantitative real time PCR (qPCR) analysis was performed as previously described (Basford et al. 2012). Primers were designed using Primer3 software (NCBI). Data were normalized to beta actin mRNA.
Given that CMPF causes hyperinsulinemia during the fed-state in vivo, and exaggerated secretion of insulin from islets under non-stimulatory conditions in vitro, we rationalized that there must be a defect in glucose-sensing and/or secretion of insulin that could not be solely explained by effects on insulin production. […] To confirm changes in mitochondrial function, 24 hr CMPF treated islets were analyzed by microarray. […] When organized based on biological process, the largest differentially expressed cluster encompassed genes involved in metabolism (38%) (FIG. 17c). […] Such a switch can decrease the beta-cell's ability to sense and metabolize glucose, limiting their capacity for GSIS thus may explain CMPF's effect on beta-cells (Hue et al., 2009).

dispersed mouse islets = experiment: Mitochondrial membrane potential (rhodamine 123); type: cell-based; details: 200 μM
Description: Dispersed isolated islets were treated with either vehicle control or 200 μM CMPF for 24 hours prior to loading with rhodamine 123 (25 ug/ml, 10 min) in 2.8 mM glucose imaging buffer. 5 mM NaN3 was added to fully depolarize the MMP (Diao et al., 2008).
Lower total insulin content may be due to beta-cell exhaustion caused by over-stimulation and/or defective insulin production. To determine the mechanism through which CMPF diminishes insulin content, we measured insulin in the media following 24 hr treatment. […] Impaired insulin processing has previously been associated with elevated levels of the mitochondrial protein uncoupling protein 2 (UCP2) (Kashemsant and Chan, 2006). Excess substrate for the electron transport chain leads to the formation of ROS, which can induce UCP2 expression. To first determine if CMPF is metabolized by beta-cells, we measured changes in mitochondrial membrane potential (MMP) in mouse islets acutely treated with CMPF. […] This corresponded to a 2-fold increase in ROS in CMPF-treated islets over controls after 4 and 24 hrs of treatment (FIG. 17c). […] The increase in ROS production caused by CMPF-treatment was inhibited by co-treatment with the antioxidant N-Acetyl-Cysteine (NAC) (FIG. 17f). Importantly, co-treatment with NAC rescued insulin secretion and insulin content to near control levels in CMPF-treated islets (FIG. 17g,h). Therefore, oxidative stress caused by CMPF metabolism impaired GSIS and insulin processing, and is reversible through reducing ROS generation.
Given that CMPF causes hyperinsulinemia during the fed-state in vivo, and exaggerated secretion of insulin from islets under non-stimulatory conditions in vitro, we rationalized that there must be a defect in glucose-sensing and/or secretion of insulin that could not be solely explained by effects on insulin production. […] To confirm changes in mitochondrial function, 24 hr CMPF treated islets were analyzed by microarray. […] When organized based on biological process, the largest differentially expressed cluster encompassed genes involved in metabolism (38%) (FIG. 17c). […]

islets = experiment: Insulin and proinsulin in the media of 24 hr treated islets; type: cell-based, mouse; details: 24 hr treatment
Description: A) Proinsulin in the media of 24 hr treated islets (n=4/group). B) Mitochondrial membrane potential (MMP) following acute addition of vehicle control or 200 μM of CMPF (N=3/group). C) ROS levels in 4- and 24-hour treated mouse islets with representative images (N=10-15 islets/mouse from 4 mice/group). D) Expression of antioxidant genes Cat and (e) Ucp2 (n=4/group). F) ROS accumulation in 24 hr-treated islets treated with 500 μM NAC (n=10 islets/mouse from 4 mice/group). G) GSIS and (h) total insulin content from 24 hr-treated islets co-treated with 500 μM NAC (n=4/group). Western blots showing (i) Ser9 phosphorylation of GSK3β, (j) Ser473 phosphorylation of AKT (n=3/group). K) Immunofluorescent staining showing nuclear translocation of FOXO1 and (l) PDX1 with CMPF and NAC treatment (n=3-6). Quantification of nuclear percentage of (m) FOXO1 and (n) PDX1 based on immunofluorescent staining with CMPF and NAC treatment. […]
Lower total insulin content may be due to beta-cell exhaustion caused by over-stimulation and/or defective insulin production. To determine the mechanism through which CMPF diminishes insulin content, we measured insulin in the media following 24 hr treatment. […] To first determine if CMPF is metabolized by beta-cells, we measured changes in mitochondrial membrane potential (MMP) in mouse islets acutely treated with CMPF. […]

murine islets = experiment: qPCR mRNA expression in treated murine islets; type: cell-based; details: 24 hrs
Description: as §1, with “First, the effect of CMPF treatment on insulin biosynthesis was investigated to determine if insulin is available to be released upon stimulation. MIN6, murine and human islets were treated with vehicle control, 20 uM and 200 uM CMPF for 4 hrs (MIN6) or 24 hrs (islets), and total insulin content measured. […] To determine the mechanism through which CMPF is reducing total insulin content, quantitative PCR (qPCR) was performed on RNA that was isolated from murine islets treated with either vehicle control or 200 uM CMPF for 24 hrs. […] Total” for “Total”

mouse islets [2] = experiment: ROS accumulation in isolated islets (mitoSOX red, CM-H2-DCFDA); type: cell-based; details: 200 μM, after 4 and 24 hrs of treatment
Description: A) Proinsulin in the media of 24 hr treated islets (n=4/group). B) Mitochondrial membrane potential (MMP) following acute addition of vehicle control or 200 μM of CMPF (N=3/group). C) ROS levels in 4- and 24-hour treated mouse islets with representative images (N=10-15 islets/mouse from 4 mice/group). D) Expression of antioxidant genes Cat and (e) Ucp2 (n=4/group). F) ROS accumulation in 24 hr-treated islets treated with 500 μM NAC (n=10 islets/mouse from 4 mice/group). G) GSIS and (h) total insulin content from 24 hr-treated islets co-treated with 500 μM NAC (n=4/group). Western blots showing (i) Ser9 phosphorylation of GSK3β, (j) Ser473 phosphorylation of AKT (n=3/group). K) Immunofluorescent staining showing nuclear translocation of FOXO1 and (l) PDX1 with CMPF and NAC treatment (n=3-6). Quantification of nuclear percentage of (m) FOXO1 and (n) PDX1 based on immunofluorescent staining with CMPF and NAC treatment. O) Western blots showing protein abundance of PDX1 and FOXO1. Values are mean+/−SEM. Student's t-test (a, c-j, m-o), one-way ANOVA (b). *P<0.05, **P<0.01, ***P<0.001.
The level of superoxide and H2O2 were determined using mitoSOX red and 2′,7′-dichlorodihydro fluorescein diacetate (CM-H2-DCFDA) respectively (Molecular Probes, Invitrogen, Canada) in isolated islets treated with either vehicle control or 200 μM CMPF for 4 or 24 hours, as previously described (Lee et al. 2009). […]

In the case of CCCc1oc(CCC(=O)O)c(C(=O)O)c1C [CMPF, 3-carboxy-4-methyl-5-propyl-2-furanpropanoic acid], the “genes related to fat oxidation” value (mouse islets [1]) is reported as “significant upregulation”, the “share of differentially expressed genes in the metabolism cluster” value (mouse islets [1]) is reported as 38% and the “transcripts significantly differentially expressed” value (mouse islets [1]) is reported as 6.2%. The “MMP hyperpolarization under high glucose” value (dispersed mouse islets; 24 hrs) was “significantly reduced MMP hyperpolarization”, the “MMP hyperpolarization under sub-stimulatory glucose” value (dispersed mouse islets; 24 hrs) was “significantly greater hyperpolarization” and the “mitochondrial membrane potential, acute addition” value (dispersed mouse islets; acute) was “transient membrane hyperpolarization”. The “accumulation of total insulin in the media” value (islets) was “no difference”, the “proinsulin in the media” value (islets) was “substantially more proinsulin” and the “CpE mRNA” value (murine islets; 200 uM) was “significantly lower levels”. For the same molecule, the GCK expression (murine islets; 200 uM) was “trend toward lower expression”, the GLUT2 expression (murine islets; 200 uM) was “significantly reduced” and the “HNF4a mRNA” value (murine islets; 200 uM) was “significant reduction”. For the same molecule, the “MAFA mRNA” value (murine islets; 200 uM) was “significant reduction”, the “PCSK1 mRNA” value (murine islets; 200 uM) was “trending lower levels” and the “PCSK2 mRNA” value (murine islets; 200 uM) was “trending lower levels”. For the same molecule, the “PDX1 mRNA” value (murine islets; 200 uM) was “significant reduction”, the “insulin mRNA” value (murine islets; 200 uM) was “significant reduction” and the Ucp2 expression (murine islets) was “Increased antioxidant gene expression”. The “catalase (Cat) expression” value (murine islets) was “Increased antioxidant gene expression” and the “increase in ROS over controls” value (mouse islets [2]) was 2 fold.
